Values quoted from earlier work, collected in patent US5834196A, “Method for detecting and/or optionally quantifying and/or separating apoptotic cells in or from a sample” (Nexins Research B.V., priority 1994, dated 1998).

Target: annexin V
Settings: phosphatidyl serine containing membranes; Ca^2+ dependent binding; given as an estimation

Kd: < 100 pM
Substance: phosphatidyl serine
